The target in data set [1] is T1, γ-Glutamylcysteine Synthetase (Rattus norvegicus, UniProt P19468).
T1 construct: Rat kidney γ-Glutamylcysteine synthetase was purified from Sprague Dawley (Taconic Farms) rats; from tissue; host or cells: rat kidney (Sprague Dawley, Taconic Farms)
T1 sequence (P19468 1-637): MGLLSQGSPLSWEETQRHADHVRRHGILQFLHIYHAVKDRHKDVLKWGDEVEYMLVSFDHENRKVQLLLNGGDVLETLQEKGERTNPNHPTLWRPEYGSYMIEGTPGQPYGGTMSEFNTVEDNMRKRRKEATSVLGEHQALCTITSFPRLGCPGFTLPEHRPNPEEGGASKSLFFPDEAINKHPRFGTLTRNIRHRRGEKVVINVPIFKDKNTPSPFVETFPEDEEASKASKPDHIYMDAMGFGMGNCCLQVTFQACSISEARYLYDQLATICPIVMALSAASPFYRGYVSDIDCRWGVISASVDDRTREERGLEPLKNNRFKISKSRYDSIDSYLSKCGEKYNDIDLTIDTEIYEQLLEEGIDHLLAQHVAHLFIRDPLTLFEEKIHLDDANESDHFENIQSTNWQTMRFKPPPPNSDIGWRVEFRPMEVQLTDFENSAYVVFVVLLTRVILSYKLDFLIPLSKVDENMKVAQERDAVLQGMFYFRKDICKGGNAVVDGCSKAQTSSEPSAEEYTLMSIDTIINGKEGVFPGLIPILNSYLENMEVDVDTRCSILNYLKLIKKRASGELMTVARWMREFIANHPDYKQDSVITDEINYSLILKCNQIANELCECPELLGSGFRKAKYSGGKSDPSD
T1 sequence (P48508 1-274 partner): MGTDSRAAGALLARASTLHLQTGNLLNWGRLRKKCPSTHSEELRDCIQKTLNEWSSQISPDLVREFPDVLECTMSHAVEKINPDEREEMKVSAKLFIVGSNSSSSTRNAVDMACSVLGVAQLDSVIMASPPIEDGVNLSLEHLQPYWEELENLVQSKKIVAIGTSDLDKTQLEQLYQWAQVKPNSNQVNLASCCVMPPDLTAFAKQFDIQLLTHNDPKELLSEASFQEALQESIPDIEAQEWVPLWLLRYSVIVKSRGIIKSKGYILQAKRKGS
Put plainly: Inhibition of γ-glutamylcysteine synthetase (preincubation assay). The class given is biochemical. Conditions: for Ki: 30 min preincubation, 22° C., read-out: Kiapp, Concentration for 50% Inhibition; for inhibition of γ-glutamylcysteine synthetase (in words): ranking compared with BSO.
Procedure: Rat kidney γ-Glutamylcysteine synthetase was purified from Sprague Dawley (Taconic Farms) rats (Seelig., Methods in Enzymology, 1985, 113:379-390).
The preincubation assay of γ-glutamylcysteine synthetase is given below. γ-Glutamylcysteine synthetase (4.6 units) was added to a mixture (final volume, 50 μl) containing 100 mM Tris/HCl (pH 8.2), 5 mM ATP, 20 mM MgCl2, 0.2 mM EDTA, and the sulfoximine being evaluated. After incubation at 22° C. for 30 minutes, a 45 μl aliquot of the preincubation mixture was added to the assay as follows.
γ-Glutamylcysteine synthetase was assayed as follows (Griffith et al, J. Biological Chem., 1979, 254:1205-1210). The reaction mixture (final volume, 1.0 ml) contained 100 mM Tris/HCl (pH 8.2), 120 mM KCl, 5 mM phosphoenolpyruvate, 20 mM MgCl2, 10 mM sodium L-glutamate, 10 mM L-α-aminobutyric acid, 0.2 mM EDTA, 0.4 mM NADH, pyruvate kinase (10 IU), and lactate dehydrogenase (10 IU). The reaction (37° C.) was initiated by the addition of γ-glutamylcysteine synthetase and the oxidation of NADH, equivalent to ADP formation, was recorded at 340 nm.

In data set [2] the test system is glutathione. Put plainly: Tissue glutathione levels after intraperitoneal administration of sulfoximines. It counts as in vivo, mouse. The conditions noted are these: for % Decrease in glutathione / Glutathione level: 2 mmol/Kg i.p.
Procedure: Male mice (Swiss Webster) were fasted overnight (about 16 hr). L-3-methylbuthionine-SR-sulfoximine (3 mBSO; L-S-3-methylbutyl homocysteine-SR-sulfoximine; L-S-isopentyl homocysteine-SR-sulfoximine), L-buthionine-SR-sulfoximine(BSO; L-S-butyl homocysteine-SR-sulfoximine), L-2-methylbuthiomine-SR-sulfoximine (2 mBSO, L-S-2methylbutyl homocysteine-SR-sulfoximine), or saline (0.9% NaCl) were administered to mice at 2 mmol/Kg intraperitoneally (50 mM, Ph ^~ 7). At the times indicated, plasma and tissues were obtained and assayed for glutathione (GSH+1/2 GSSG) as described by Anderson, Methods in Enzymology, 1985, 113:548-555.
Data set [3] deals with glutathione. Put plainly: Tissue glutathione after oral administration of sulfoximines (Table 5). The conditions noted are these: 2 mmol/kg. It counts as in vivo, mouse. On the procedure:
Male mice (Swiss Webster) were fasted overnight (about 16 hr.) L-buthionine-SR-sulfoximine (BSO, S-n-butyl homocysteine-SR-sulfoximine), L-S-cyclohexylmethyl homocysteine-SR-sulfoximine (CHMSO); L-S-2-ethylbutylhomocysteine-SR-sulfoximine (2 EtBSO, L-S-2-ethylbutyl homocysteine-SR-sulfoximine, or saline (0.9% NaCl) were administered to mice at 2 mmol/Kg by intubation (100 mM; pH about 1 with HCl (200 mM). At the times indicated, plasma and tissues were obtained and assayed for glutathione (GSH+1/2 GSSG) as described by Anderson, Methods in Enzymology, 1985, 113:548-555. (See Table 4 and 5.)

Data set [4] is described as follows: Detection of compound in mouse bile. It counts as in vivo.
For data set [5], the system named is mouse L1210 leukemia cells. The conditions noted are these: cited from earlier work.

As to `CCC(CC)CS(=N)(=O)CC[C@H](N)C(=O)O` (stereo partly drawn) [2ETBSO, L-S-2-ethylbutyl homocysteine-SR-sulfoximine], the Ki in data set [1] was determined as 43.3 µM.
As to `CCC(C)CS(=N)(=O)CC[C@H](N)C(=O)O` (stereo partly drawn) [2m BSO, L-S-2methylbutyl homocysteine-SR-sulfoximine], the “% Decrease in glutathione” value with glutathione [2] (brain, 2 hr) is on record as 5%; in the data set on glutathione [2] (brain, 12 hr) it was 0%; in the data set on glutathione [2] (heart, 2 hr) it was 14%; in the data set with glutathione [2] (heart, 12 hr) it was 8%; in the data set with glutathione [2] (kidney, 2 hr), 25%; with glutathione [2] (kidney, 12 hr), 0%. The “% Decrease in glutathione” value is reported as 18% with glutathione [2] (liver, 2 hr); 0% in the data set with glutathione [2] (liver, 12 hr); 15% in the data set with glutathione [2] (plasma, 2 hr); 8% in the data set with glutathione [2] (plasma, 12 hr). For the same compound, the Glutathione level in the data set on glutathione [2] (brain, 2 hr) worked out at 2.19 µmol/g; in the data set with glutathione [2] (brain, 12 hr), 2.18 µmol/g; in the data set with glutathione [2] (heart, 2 hr) it was 1.15 µmol/g; with glutathione [2] (heart, 12 hr), 1.19 µmol/g; in the data set with glutathione [2] (kidney, 2 hr), 2.08 µmol/g; in the data set on glutathione [2] (kidney, 12 hr), 4.10 µmol/g. Moreover, the Glutathione level in the data set on glutathione [2] (liver, 2 hr) was 4.49 µmol/g; with glutathione [2] (liver, 12 hr) it was 5.05 µmol/g; in the data set on glutathione [2] (plasma, 2 hr), 25.2 µM; in the data set on glutathione [2] (plasma, 12 hr) it was 26.3 µM. For the same compound, the Ki in data set [1] amounted to 18.4 µM.
Consider `CC(C)CCS(=N)(=O)CC[C@H](N)C(=O)O` (stereo partly drawn) [3m BSO, L-S-3-methylbutyl homocysteine-SR-sulfoximine], for which the “% Decrease in glutathione” value with glutathione [2] (brain, 2 hr) is 10%; in the data set on glutathione [2] (brain, 12 hr), 10%; with glutathione [2] (heart, 2 hr), 16%; in the data set on glutathione [2] (heart, 12 hr) it was 57%; with glutathione [2] (kidney, 2 hr), 81%; in the data set on glutathione [2] (kidney, 12 hr) it was 53%. For the same compound, the “% Decrease in glutathione” value in the data set with glutathione [2] (liver, 2 hr) was 77%; in the data set on glutathione [2] (liver, 12 hr) it was 22%; with glutathione [2] (plasma, 2 hr), 64%; with glutathione [2] (plasma, 12 hr), 30%. In addition, the Glutathione level with glutathione [2] (brain, 2 hr) came out at 2.09 µmol/g; in the data set with glutathione [2] (brain, 12 hr), 1.92 µmol/g; in the data set with glutathione [2] (heart, 2 hr) it was 1.13 µmol/g; in the data set on glutathione [2] (heart, 12 hr), 0.55 µmol/g; in the data set with glutathione [2] (kidney, 2 hr), 0.73 µmol/g; in the data set with glutathione [2] (kidney, 12 hr), 1.69 µmol/g. Moreover, the Glutathione level was found to be 1.26 µmol/g in the data set with glutathione [2] (liver, 2 hr); 3.86 µmol/g in the data set with glutathione [2] (liver, 12 hr); 10.6 µM in the data set with glutathione [2] (plasma, 2 hr); 19.2 µM with glutathione [2] (plasma, 12 hr). Further, the “depletion of liver glutathione compared with BSO” value in the data set with glutathione [2] (liver, after 2 hr) is on record as “more effective than BSO”. In addition, the Ki in data set [1] was 0.6 µM. Further, in data set [1], the “inhibition of γ-glutamylcysteine synthetase (in words)” value is “best inhibitors, about equal to BSO”.
As for `N=S(=O)(CC[C@H](N)C(=O)O)CC1CCCCC1` (stereo partly drawn) [CHMSO, L-S-cyclohexylmethyl homocysteine-SR-sulfoximine], the “decrease in brain glutathione levels” value in the data set with glutathione [3] (12 hours, experimental error about 5%) is “no decrease”. Besides, the “decrease in glutathione levels (cardio-toxicity)” value with glutathione [3] (2 hours, mice) turned out to be 8%. Besides, in data set [1], the Ki was 3.8 µM and the “inhibition of γ-glutamylcysteine synthetase (in words)” value was “best inhibitors, about equal to BSO”. The “detection in mouse bile” value in data set [4] is on record as “CHMSO was detected”.
For `N[C@@H](Cc1ccc(N(CCCl)CCCl)cc1)C(=O)O` [phenylalanine mustard], the “dose needed to kill the most resistant cells versus most sensitive cell lines” value in data set [5] was “substantially higher”. Also, the “conversion of phenylalanine mustard by resistant cells” value in data set [5] (glutathione-dependent dehydrochlorination) is listed as “converted phenylalanine mustard to a non-toxic hydroxy derivative”.

The values are drawn from patent publication US5476966A, “Method for depletion of glutathione” (Cornell Research Foundation, Inc., priority 1995, dated 1995).
